Square brackets hold non-standard residues; d marks the D form. Peptide text beside a SMILES is read from it. * marks the point of attachment. Tyr(3-I) = N[C@@H](Cc1ccc(O)c(I)c1)C(=O)O; pGlu = O=C1CC[C@@H](C(=O)O)N1; azaGly = NNC(=O)O; tBu = CC(C)(C)*
Columns and labels:
[1] = tested on: human glioblastoma cell lines U-87MG or U-373MG, Kaposi sarcoma cell lines KSY-1 or KS-SLK, malignant melanoma cell line MV3 or BLM, medulloblastoma cell line …; test: Proliferation assay on cell cultures (Example 3); assay type: cell-based; conditions: cell lines of Example 3 treated with the substance
Procedure: A human cell line, such as the well known human glioblastoma cell lines U-87MG or U-373MG (Pinski et al., supra), or a human cell line such as the well known Kaposi sarcoma cell lines KSY-1 or KS-SLK (Parkash et al., 1996, New England Journal of Medicine, 335, 17, 1261-1269), or a human cell line such as the well known human malignant melanoma cell line MV3 or BLM (Goldbrunner, R. H., et al., 1996, Anticancer Research 16 (6B), 3679-87), or a human medulloblastoma cell line such as the well known cell line Daoy or D283 MED (Stockhammer et al., 1995, J. Neurosurgery, 83, 672-681), or human meningeoma cell cultures (Boyle-Wash, E., et al., 1995, Journal of Endocrinology, 145, 155-161), are cultured as previously described for the above-mentioned cell lines and then treated with a concentration of the GnRH agonist Triptorelin®, GnRH antagonist SB-75 (Cetrorelix®) or GnRH antagonist Ramorelix®. […]
In another embodiment, the above-mentioned cell lines are treated as described by Emons, G., et al., 1993, supra, and Irmer, G., 1995, supra, with a concentration of the GnRH peptide antagonist Ac-D-Nal(2)-D-4-ClPhe-D-Pal-Ser-1-MePal-D-IsopropylLys-Leu-IsopropylLys-Pro-D-AlaNH2 (also known as Ant 135-25; the Mepal portion is known as 1-Methyl-3-[3′-pyridyl]-alanine), Teverelix (also known as Antarelix®), Cetrorelix (also known as Cetrotide®), Abarelix (also known as Plenaxis®), D-63153 (also known as Ozarelix®), acyline, azaline B, antide (also known as Iturelix®), Degarelix (FE200486), Ganirelix, Nal-Glu, Orntide (also known as Ornirelix®), Elagolix, or with antagonist peptidomimetic ((2S)-2-[5-[2-(2-azabicyclo[2,2,2]oct-2-yl)-1,1-dimethyl-2-oxoethyl]-2-(3,5-dimethylphenyl)-1H-indol-3-yl]-N-(2-pyridin-4-ylethyl-)propan-1-amine (also known as “IN3”).
In another embodiment, the cell lines used above were each additionally treated with a second GnRH antagonist, namely one of the GnRH antagonists Cetrorelix®, Ant 135-25, IN3, degarelix, Antarelix®, Antide®, and Ramorelix® or alternatively with one of the GnRH antagonists that have been disclosed in U.S. Pat. Nos. 6,939,88, 6,200,957, 5,296,468, 4,851,385, 7,361,633, 7,288,517, WO/2009/106597 or PCT/EP2009/052326, U.S. Pat. Nos. 5,480,969, 5,198,533, or UK Patent GB 2 246782 B, wherein these additional treatment procedures were carried out in a manner similar to those reported in Emons et al., supra, using SB 75 (Cetrorelix®). […]

[2] = tested on: malignant gliomas U-87MG and U-373MG; test: In vivo study with tumor-implanted nude mice (Example 4); conditions: daily dosages
Procedure: An effect of the treatment of tumor-implanted nude mice (Pinski et al., supra) each with one of the GnRH agonists Buserelin, Triptorelin, Goserelin, and Leuprorelin and each with one of the GnRH antagonists Cetrorelix® (SB-75), Antarelix®, Antide®, and Ramorelix® on the growth of malignant gliomas U-87MG and U-373MG was carried out using daily dosages and controls in nude mice using analysis techniques described for the determination of the efficacy of similar peptides in Pinski et al., supra.

[3] = tested on: Glioblastoma multiforme; test: Phase I study with Buserelin (Example 5); assay type: in vivo, human; conditions: intravenous or intranasal, permanent medication
Procedure: Patients with non-resectable Glioblastoma multiforme following microsurgical resection and/or after external conventional radiotherapy and/or brachytherapy; or patients with a diffusely, intraaxially growing brain tumor, multifocal tumor spreading or presence of a gliomatosis cerebri, respectively; a tumor volume of more than 65 ml; or a minimal tumor diameter of more than 5 cm, were each treated with the GnRH agonist Buserelin, which was administered intravenously or alternatively by intranasal application as a permanent medication as described by Klijn, J. G. M., et al., 1982, The Lancet, May 19, […].

[4] = tested on: ovarian carcinoma cell lines; conditions: 10^−5 M, day 6; cited from earlier work
[5] = molecular target: T1, LHRH receptors in BLM melanoma cells (Homo sapiens, UniProt P30968); test: 125I-LHRH-A binding to BLM cell membranes
T1 construct: endogenous in cells; host or cells: BLM human melanoma cells (membranes)
T1 sequence (P30968 1-328): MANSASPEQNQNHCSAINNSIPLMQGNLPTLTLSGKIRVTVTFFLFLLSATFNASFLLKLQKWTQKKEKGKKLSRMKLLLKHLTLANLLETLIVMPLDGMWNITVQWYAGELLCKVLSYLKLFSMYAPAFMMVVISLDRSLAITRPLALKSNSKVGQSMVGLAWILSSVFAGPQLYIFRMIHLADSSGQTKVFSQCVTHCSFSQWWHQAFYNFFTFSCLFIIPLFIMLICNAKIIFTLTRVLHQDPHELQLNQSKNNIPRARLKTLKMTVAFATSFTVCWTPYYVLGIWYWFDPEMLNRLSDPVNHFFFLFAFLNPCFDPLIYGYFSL
Procedure: (§1) GnRH receptors in melanoma cells have been analyzed also in terms of binding parameters.
(§2) Binding characteristics were evaluated from displacement curves as described in Materials and Methods.

[6] = molecular target: T2, LHRH receptors in Me15392 melanoma cells (Homo sapiens, UniProt P30968); test: 125I-LHRH-A binding to Me15392 cell membranes
T2 construct: endogenous in cells; host or cells: Me15392 human melanoma cells (membranes)
T2 sequence (P30968 1-328): T1 sequence (P30968 1-328)
Procedure: as §1, §2

[7] = molecular target: T3, LHRH receptors in rat pituitaries (Rattus norvegicus, UniProt P30969); test: 125I-LHRH-A binding to rat pituitaries (control)
T3 construct: from tissue; host or cells: rat pituitary
T3 sequence (P30969 1-327): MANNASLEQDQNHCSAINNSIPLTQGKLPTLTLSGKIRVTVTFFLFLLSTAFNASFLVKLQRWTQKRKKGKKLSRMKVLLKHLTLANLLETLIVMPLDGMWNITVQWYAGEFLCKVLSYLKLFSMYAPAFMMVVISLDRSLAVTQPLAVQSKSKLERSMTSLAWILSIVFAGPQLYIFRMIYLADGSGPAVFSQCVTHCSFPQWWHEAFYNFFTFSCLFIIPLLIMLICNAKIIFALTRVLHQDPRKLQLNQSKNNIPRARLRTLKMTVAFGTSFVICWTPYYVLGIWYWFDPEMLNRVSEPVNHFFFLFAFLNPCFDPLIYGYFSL
Procedure: as §1, §2

[8] = tested on: small cell lung carcinoma cell lines NCI-H1688, NCI-H1417, NCI-H1672, NCI-H1836, DMS-79, DM-553, DMS-114, SW-1271, NCI-H2227, NCI-HI1963, SHP-77 and H-69 AR; test: Proliferation assay on small cell lung carcinoma cell lines (Example 3); assay type: cell-based, human; conditions: small cell lung carcinoma cell lines treated with the substance
Procedure: In another embodiment, the small cell lung carcinoma cell lines NCI-H1688, NCI-H1417, NCI-H1672, NCI-H1836, DMS-79, DM-553, DMS-114, SW-1271, NCI-H2227, NCI-HI1963 and SHP-77 in addition to the multidrug-resistant small cell lung carcinoma cell line H-69 AR, are cultured as described above and then treated as described by Emons, G., et al., 1993, supra, and Irmer, G., 1995, supra, with various concentrations of the GnRH agonists (D-Lys6)-GnRH, Lutrelin, Histrelin, Nafarelin, Azagly-Nafarelin, Deslorelin, Cystorelin, Decapeptyl, Gonadorelin, GnRH, D-Lys(6)-GnRH II, Lamprey GnRH II, (D-Lys6)-Lamprey GnRH, (D-Lys6)-Lamprey GnRH II and Lamprey GnRH III.
In another embodiment, the small cell lung carcinoma cell lines NCI-H1688, NCI-H1417, NCI-H1672, NCI-H1836, DMS-79, DM-553, DMS-114, SW-1271, NCI-H2227, NCI-HI1963 and SHP-77 in addition to the multidrug-resistant small cell lung carcinoma cell line H-69 AR, are cultured as described above for the above-mentioned cell lines, and then treated as described by Emons, G., et al., 1993, supra, and Irmer, G., 1995, supra, with a concentration of the GnRH antagonist Cetrorelix (also known as Cetrotide®) or with a GnRH peptide antagonist Ac-D-Nal(2)-D-4-ClPhe-D-Pal-Ser-1-MePal-D-IsopropylLys-Leu-IsopropylLys-Pro-D-AlaNH2 wherein Mepal is 1-Methyl-3-[3′-pyridyl]-alanine or Ant 135-25 (also known as Ac-D-Nal(2)-D-4-Cl-Phe-D-Pal-Ser-1-MePal-D-IsopropylLys-Leu-IsopropylLys-Pro-D-AlaNH2), Teverelix (also known as Antarelix®), Cetrorelix (also known as Cetrotide®), Abarelix (also known as Plenaxis®), D-63153 (also known as Ozarelix®), acyline, azaline B, antide (also known as Iturelix®), Degarelix (FE200486), Ganirelix, Nal-Glu, Orntide (also known as Ornirelix®) or with antagonist peptidomimetic ((2S)-2-[5-[2-(2-azabicyclo[2,2,2]oct-2-yl)-1,1-dimethyl-2-oxoethyl]-2-(3,5-dimethylphenyl)-1H-indol-3-yl]-N-(2-pyridin-4-ylethyl-)propan-1-amine (also known as “IN3”).

[9] = tested on: BLM human melanoma cells; test: Proliferation of BLM human melanoma cells (Example 20); assay type: cell-based; conditions: 5×10^−5M
Source text: The effects of the GnRH agonist (D-Lys6)-GnRH, Gossypol, the combination of D-Lys6-GnRH and racemic Gossypol, and a conjugate of (D-Lys6)-GnRH, and racemic Gossypol alone on the proliferation of BLM human melanoma cells are depicted in FIG. 20 (A), (B) and (C), respectively. Results are expressed as mean cell number per plate±SE. *, p<0.05 vs. control (C).

CCNC(=O)[C@@H]1CCCN1C(=O)[C@H](CCCNC(=N)N)NC(=O)[C@H](CC(C)C)NC(=O)[C@@H](COC(C)(C)C)NC(=O)[C@H](Cc1ccc(O)cc1)NC(=O)[C@H](CO)NC(=O)[C@H](Cc1c[nH]c2ccccc12)NC(=O)[C@H](Cc1cnc[nH]1)NC(=O)[C@@H]1CCC(=O)N1 [Buserelin]
anti-proliferative effects in tumor cells [1]: Significant anti-proliferative effects | growth of malignant gliomas [2]: Significant growth-inhibiting effects | recidivation-free survival [3]: longer than that described following Tamoxifen treatment of glioma

CC(C)C[C@H](NC(=O)[C@@H](Cc1c[nH]c2ccccc12)NC(=O)[C@H](Cc1ccc(O)cc1)NC(=O)[C@H](CO)NC(=O)[C@H](Cc1c[nH]c2ccccc12)NC(=O)[C@H](Cc1c[nH]cn1)NC(=O)[C@@H]1CCC(=O)N1)C(=O)N[C@@H](CCCNC(=N)N)C(=O)N1CCC[C@H]1C(=O)NCC(N)=O [Triptorelin®]
anti-proliferative effects in tumor cells [1]: Significant anti-proliferative effects | growth of malignant gliomas [2]: Significant growth-inhibiting effects | inhibition of proliferation [4]: 40%

CC(C)C[C@H](NC(=O)[C@@H](COC(C)(C)C)NC(=O)[C@H](Cc1ccc(O)c(I)c1)NC(=O)[C@H](CO)NC(=O)[C@H](Cc1c[nH]c2ccccc12)NC(=O)[C@H](Cc1c[nH]cn1)NC(=O)[C@@H]1CCC(=O)N1)C(=O)N[C@@H](CCCNC(=N)N)C(=O)N1CCC[C@H]1C(=O)NNC(N)=O [^125I-LHRH-A] ([pGlu]HWS[Tyr(3-I)][dS](tBu)LRP[azaGly]-NH2; C-terminus assumed)
^125I-LHRH-A binding Capacity [5]: 150-200 fmoles/mg protein | ^125I-LHRH-A binding Capacity [6]: 200-250 fmoles/mg protein | ^125I-LHRH-A binding Capacity [7]: 70-100 fmoles/mg protein

(D-Lys6)-GnRH
anti-proliferative effects in tumor cells [8]: Significant anti-proliferative effects | anti-proliferative effects in tumor cells [1]: Significant anti-proliferative effects | inhibition of cellular proliferation versus controls [9]: 39%

From patent publication US8962558B2, “Methods for reducing GnRH-positive tumor cell proliferation using the GnRH antagonist IN3” (priority 1997, dated 2015)
